# From ChEMBL document CHEMBL1147324, “The isolation and structure of modified bioactive nucleosides from Jaspis johnstoni” (J Nat Prod, 1989)
# Assays:
# L1210 [1] = test: Antitumor activity against mouse L1210 cells implanted in mouse assessed as increase in survival; type: functional
# L1210 [2] = test: Cytotoxicity against mouse L1210 cells; type: functional, cell-based
# Candida albicans = test: Antifungal activity against Candida albicans at 1.25 mg/6.4 mm disk; type: functional
Structure (SMILES),Activity (L1210 [1]) [%],IC50 (L1210 [2]) [µg/mL],inhibition zone (IZ) (Candida albicans) [mm]
COC(=O)c1cn([C@@H]2O[C@H](CO)[C@@H](O)[C@H]2O)c2ncnc(N)c12,39,0.027,
N#Cc1cn([C@@H]2O[C@H](CO)[C@@H](O)[C@H]2O)c2ncnc(N)c12 [TOYOCAMYCIN],,0.0026,13
